Values quoted from earlier work as cited in patent US8871277B2, “Particulate wood preservative and method for producing the same” (Osmose, Inc., priority 2003, dated 2014).
Like-named read-outs stand apart in the source and are kept apart here.

Experiments:
[1] = solubility product constant
[2] = Synthetic Precipitation Leaching Procedure

Compound: [Cu] [copper]
- solubility of copper (pH 4): 640 ppm
- solubility of copper (pH 7): 2 ppm
- solubility of copper (pH 10): about 0.01 ppm

Compound: copper 8-quinolinolate
- Ksp [1]: 2 E−30

Compound: copper citrate
- copper in leachate from treated wood [2]: 62 mg copper per liter

Compound: copper sulfide
- Ksp [1]: 6 E−36
